Legend:
[1] = tested on: fibrin formation in the rabbit anterior chamber; experiment: Fibrin formation in the anterior chamber caused by laser irradiation (slit lamp microscope); format: in vivo, pigmented rabbits; conditions: 0.1 mg/kg/minute intravenously, 30 minutes after the irradiation
Description: In this example, a model of fibrin formation in the rabbit anterior chamber caused by laser irradiation was used as a measure for testing the action of argatroban. In this model, the seriousness of inflammation and amount of fibrin are determined proportional to the total energy of the laser irradiation. The amount of fibrin can be controled to the desired value by altering total energy of laser irradiation.
(§1) Matured pigmented rabbits (Dutch rabbits of 2 kg body weight) were irradiated with laser at the iris using an argon laser equipment (product of NIDEK). In one group of the rabbits on the eyes, 8 irradiation points at the same interval on a circle line were made under the conditions of coagulation size of 50 micrometer, output of 1.0 Watt and irradiation time of 0.1 second (condition A). In other group of the rabbits, 8 irradiation points similar to those on the eyes were made under the conditions of coagulation size of 200 micrometer, output of 1.0 Watt and irradiation time of 0.2 second (condition B).
From 30 minutes prior to and until 30 minutes after irradiations, 0.1 mg/kg/minute of argatroban was administered intravenously from ear vein. Control group received only laser irradiation. Positive control group received 1000 U/kg of heparin intravenously 30 minutes prior to laser irradiation. […]
The fibrin formation was recorded photographically using a slit lamp microscope.

[2] = tested on: flare increase in the anterior chamber; experiment: Anterior chamber flare after argon laser irradiation (flare cell meter); format: in vivo, pigmented rabbits; conditions: condition B
From the text: as §1
From 30 minutes prior to and until 30 minutes after irradiations, 0.1 mg/kg/minute of argatroban was administered intravenously from ear vein. Control group received only laser irradiation. Positive control group received 1000 U/kg of heparin intravenously 30 minutes prior to laser irradiation.
For argatroban eye drop, right eyes of the rabbits received 5 mg/ml solution of argatroban, while left eyes were used as a control without application of argatroban.
Further, the laser irradiation of condition B was effected and then the anterior chamber flare values were estimated using the flare cell meter at 30 minutes and 60 minutes after the irradiation.
The flare cell meter measures turbidity in the anterior chamber as the photon count. […]

[3] = tested on: fibrin formation in the anterior chamber; experiment: Fibrin formation by administering self-plasma to the anterior chamber; format: in vivo, white rabbits; conditions: 150 microliter plasma and 50 microliter argatroban solution (10 mg/ml) injected to the anterior chamber; 24 hours after the administration
Description: Blood of matured white rabbits (2 kg in body weight) were taken and separated to give plasma. Two hundreds microliter of anterior chamber liquid was taken by conducting centesis into anterior chamber of the same rabbit. Then, 150 microliter of the plasma obained and 50 microliter of argatroban solution (10 mg/ml), 200 microliter in total, were injected to the anterior chamber from the same centesis portion. The control received 150 microliter of plasma and 50 microliter of physiological saline in the same manner at the anterior chamber. The fibrin formation in the anterior chamber 24 hours after the administration was observed and recorded.

[4] = LD50 (acute toxicity), mouse; conditions: in vivo
From the text: (§2) In the following Table 2, the toxicological data of argatroban is shown.

[5] = LD50 (acute toxicity), rat; conditions: in vivo
From the text: as §2

[6] = LD50 (acute toxicity), dog; format: in vivo; conditions: in vivo, iv, Male, i. v.
From the text: as §2

[7] = tested on: dog; experiment: LD50 (acute toxicity), dog; format: in vivo; conditions: Female, i. v.
From the text: as §2

In the case of `CC1CNc2c(cccc2S(=O)(=O)N[C@@H](CCCNC(=N)N)C(=O)N2CC[C@@H](C)C[C@@H]2C(=O)O)C1.O` (mixture of isomers) [argatroban, (2R,4R)-4-methyl-1-[N^2-((RS)-3-methyl-1,2,3,4-tetrahydro-8-quinolinesulfonyl)-L-arginyl]-2-piperidinecarboxylic acid hydrate], the fibrin formation ([1]; condition A) is reported as “no fibrin formation was also observed”, the fibrin formation ([1]; condition B) is reported as “no fibrin formation was also observed” and the “photon count (/msec)” value ([2]; eye drop, solution of 5 mg/ml, 30 minutes after laser irradiation) is reported as 287.7 ± 99.2 (n=4) /msec. For the same compound, the “photon count (/msec)” value ([2]; eye drop, solution of 5 mg/ml, 60 minutes after laser irradiation) was 341.2 ± 86.5 (n=4) /msec, the “photon count (/msec)” value ([2]; intravenous injection at 0.1 mg/kg/min, 30 minutes after laser irradiation) was 417.7 ± 159.3 (n=4) /msec and the “photon count (/msec)” value ([2]; intravenous injection at 0.1 mg/kg/min, 60 minutes after laser irradiation) was 356.9 ± 168.3 (n=4) /msec. For the same compound, the fibrin formation [3] was “No fibrin formation was observed”, the LD50 ([4]; ip, Female, i. p.) was 640 mg/kg and the LD50 ([4]; ip, Male, i. p.) was 475 mg/kg. The LD50 ([4]; iv, Female, i. v.) was over 81 mg/kg, the LD50 ([4]; iv, Male, i. v.) was over 81 mg/kg and the LD50 ([4]; po, Female, p. o.) was over 15000 mg/kg. For the same compound, the LD50 ([4]; po, Male, p. o.) was over 15000 mg/kg, the LD50 ([4]; sc, Female, subc.) was 3900 mg/kg and the LD50 ([4]; sc, Male, subc.) was 3750 mg/kg. For the same compound, the LD50 ([5]; ip, Female, i. p.) was 409 mg/kg, the LD50 ([5]; ip, Male, i. p.) was 320 mg/kg and the LD50 ([5]; iv, Female, i. v.) was over 81 mg/kg. For the same compound, the LD50 ([5]; iv, Male, i. v.) was over 81 mg/kg, the LD50 ([5]; po, Female, p. o.) was over 15000 mg/kg and the LD50 ([5]; po, Male, p. o.) was over 15000 mg/kg. It also gave an LD50 ([5]; sc, Female, subc.) of 620 mg/kg, an LD50 ([5]; sc, Male, subc.) of 700 mg/kg and an LD50 [6] of over 200 mg/kg. For the same compound, the LD50 [7] was over 200 mg/kg.

Reference: EP0565897B1, “Argatroban preparations for ophthalmic use” (priority 1992, dated 1993)
